Laboratory results as given in US5969115A, “Bisazo dyes and their preparation and use” (Ilford Imaging Switzerland GMBH, priority 1997, dated 1999).

Assay: Dye solubility in deionised water
Format: physicochemical
Conditions: deionised water; stirred 1 hour at 50° C., cooled to 20° C.; Table 5
Protocol: The dye was dispersed in deionised water and this dispersion was stirred for 1 hour at 50° C. Then the mixture was cooled down to 20° C., centrifuged and filtered. Dye solubility was calculated a) from visible spectral data of the filtered solution or b) based on the dried filter residue.
Work on `Nc1ccc2cc(S(=O)(=O)O)c(N=Nc3ccc(N=Nc4cc(C(=O)O)cc(C(=O)O)c4)c4ccc(S(=O)(=O)O)cc34)c(O)c2c1` [Compound 24, reference compound] yielded a Solubility of 12 g per 100 ml.

Assay: Absorption maximum in water
Format: physicochemical
Conditions: Table 6
Excerpt: The absorption maxima and the results of the tests (B) to (D) are listed in Table 6 for the dyes of the invention and in Table 7 for the dyes that are state of the art.
For `O=S(=O)(O)CCNc1ccc2cc(S(=O)(=O)O)c(N=Nc3ccc(N=Nc4ccc5c(S(=O)(=O)O)cc(S(=O)(=O)O)cc5c4)c4ccc(S(=O)(=O)O)cc34)c(O)c2c1` [Compound 20], the “HD max in water” value was 582 nm.
In the case of `O=S(=O)(O)CCNc1ccc2cc(S(=O)(=O)O)c(N=Nc3ccc(N=Nc4ccc(CS(=O)(=O)O)cc4)c4cc(S(=O)(=O)O)ccc34)c(O)c2c1` [Compound 9], the “HD max in water” value is reported as 575 nm.
For `O=S(=O)(O)CCNc1ccc2cc(S(=O)(=O)O)c(N=Nc3ccc(N=Nc4cc(Cl)c(S(=O)(=O)O)cc4Cl)c4ccc(S(=O)(=O)O)cc34)c(O)c2c1` [Compound 18], the “HD max in water” value was 553 nm.
In the case of `O=C(O)CCc1ccc(N=Nc2ccc(N=Nc3c(S(=O)(=O)O)cc4ccc(NCCS(=O)(=O)O)cc4c3O)c3cc(S(=O)(=O)O)ccc23)cc1` [Compound 12], the “HD max in water” value is reported as 576 nm.
In the case of `O=P(O)(O)Cc1ccc(N=Nc2ccc(N=Nc3c(S(=O)(=O)O)cc4ccc(NCCS(=O)(=O)O)cc4c3O)c3cc(S(=O)(=O)O)ccc23)cc1` [Compound 10], the “HD max in water” value is reported as 578 nm.
With `O=C(O)c1cccc(N=Nc2ccc(N=Nc3c(S(=O)(=O)O)cc4ccc(NCCS(=O)(=O)O)cc4c3O)c3cc(S(=O)(=O)O)ccc23)c1` [Compound 2] the “HD max in water” value was 573 nm.
In the case of `O=S(=O)(O)CCNc1ccc2cc(S(=O)(=O)O)c(N=Nc3ccc(N=Nc4cccc(CO)c4)c4ccc(S(=O)(=O)O)cc34)c(O)c2c1` [Compound 1], the “HD max in water” value is reported as 582 nm.
In the case of `O=S(=O)(O)CCNc1ccc2cc(S(=O)(=O)O)c(N=Nc3ccc(N=Nc4ccc(CCO)cc4)c4ccc(S(=O)(=O)O)cc34)c(O)c2c1` [Compound 11], the “HD max in water” value is reported as 577 nm.
In the case of `O=C(O)CCC(NC(=O)c1ccc(N=Nc2ccc(N=Nc3c(S(=O)(=O)O)cc4ccc(NCCS(=O)(=O)O)cc4c3O)c3cc(S(=O)(=O)O)ccc23)cc1)C(=O)O` (centres unmarked) [Compound 14], the “HD max in water” value is reported as 576 nm.

Same assay, conditions: second value of the cell, Table 6
In the case of `O=S(=O)(O)CCNc1ccc2cc(S(=O)(=O)O)c(N=Nc3ccc(N=Nc4cccc(CO)c4)c4ccc(S(=O)(=O)O)cc34)c(O)c2c1` [Compound 1], the “HD max in water (second maximum)” value is reported as 440 nm.

Same assay, conditions: state of the art dyes, Table 7
In the case of `Nc1ccc2cc(S(=O)(=O)O)c(N=Nc3ccc(N=Nc4cc(C(=O)O)cc(C(=O)O)c4)c4ccc(S(=O)(=O)O)cc34)c(O)c2c1` [Compound 24, reference compound], the “HD max in water” value is reported as 571 nm.

Assay: Color co-ordinates (L*a*b*) of printed samples
Format: physicochemical
Conditions: Table 6
Protocol: (§1) The present invention, as far as it relates to inks, is further illustrated by the following examples using dyes according to our invention described in Tables 1 and 2 and dyes representing the state of the art described in Tables 3 and 4. 100 g of each ink were prepared by heating the necessary amount of dye (3-7 g), glycerol (5 g), tetraethylenglycol (1.1 g). and a biocide solution (Promexal X50, available from Zeneca, Manchester, England) (1.2 g) together with water at a temperature of 50° C. under stirring for one hour. The resulting solution was cooled down to 20° C., pH was adjusted to 7.5 and passed through a Millipore® filter of 0.5 μm pore diameter. The dye quantity was adjusted in a way that the density of the printed images was the same for all dyes.
(§2) 30 g of gelatin with a high isoelectric point (type St 70,810, available from Deutsche Gelatinefabriken, Eberbach, Germany) were dissolved in 360 ml of deionised water. 1 g of a surfactant (Olin 10G, available from Olin Corporation, Norwalk, USA) were added to this solution. Immediately before coating 6.6 g of a solution of 2-(4-dimethyl-carbamoyl-pyridino)-ethanesulfonate (3%) were added and pH was adjusted to 6.5. 100 g/m^2 of this solution was then coated onto a resin coated paper support using a bar coater. The recording medium prepared in this way was dried for 12 hours.
(§3) The inks were then jetted onto this recording medium with an HP560 ink jet printer from Hewlett-Packard. The properties of the printed samples were evaluated later on.
L*a*b*-values were measured on printed samples using a Gretag SPM 100 spectrometer, available from Gretag AG, Regensdorf, Switzerland.
Black dyes show a neutral hue if the values of a* and b*out of the L*a*b* color co-ordinates are zero.
In the case of `O=S(=O)(O)CCNc1ccc2cc(S(=O)(=O)O)c(N=Nc3ccc(N=Nc4ccc5c(S(=O)(=O)O)cc(S(=O)(=O)O)cc5c4)c4ccc(S(=O)(=O)O)cc34)c(O)c2c1` [Compound 20], the “L*a*b*-value: L*” value is reported as 9.4, the “L*a*b*-value: a*” value is reported as 3.8 and the “L*a*b*-value: b*” value is reported as -3.6.
With `O=S(=O)(O)CCNc1ccc2cc(S(=O)(=O)O)c(N=Nc3ccc(N=Nc4ccc(CS(=O)(=O)O)cc4)c4cc(S(=O)(=O)O)ccc34)c(O)c2c1` [Compound 9] the “L*a*b*-value: L*” value was 22.9, the “L*a*b*-value: a*” value was 11.0 and the “L*a*b*-value: b*” value was -5.2.
For `O=S(=O)(O)CCNc1ccc2cc(S(=O)(=O)O)c(N=Nc3ccc(N=Nc4cc(Cl)c(S(=O)(=O)O)cc4Cl)c4ccc(S(=O)(=O)O)cc34)c(O)c2c1` [Compound 18], the “L*a*b*-value: L*” value was 3.5, the “L*a*b*-value: a*” value was 4.4 and the “L*a*b*-value: b*” value was 0.3.
With `O=C(O)CCc1ccc(N=Nc2ccc(N=Nc3c(S(=O)(=O)O)cc4ccc(NCCS(=O)(=O)O)cc4c3O)c3cc(S(=O)(=O)O)ccc23)cc1` [Compound 12] the “L*a*b*-value: L*” value was 12.1, the “L*a*b*-value: a*” value was 3.8 and the “L*a*b*-value: b*” value was -3.1.
With `O=P(O)(O)Cc1ccc(N=Nc2ccc(N=Nc3c(S(=O)(=O)O)cc4ccc(NCCS(=O)(=O)O)cc4c3O)c3cc(S(=O)(=O)O)ccc23)cc1` [Compound 10] the “L*a*b*-value: L*” value was 2.0, the “L*a*b*-value: a*” value was 1.5 and the “L*a*b*-value: b*” value was 0.1.
With `O=C(O)c1cccc(N=Nc2ccc(N=Nc3c(S(=O)(=O)O)cc4ccc(NCCS(=O)(=O)O)cc4c3O)c3cc(S(=O)(=O)O)ccc23)c1` [Compound 2] the “L*a*b*-value: L*” value was 2.1, the “L*a*b*-value: a*” value was 2.0 and the “L*a*b*-value: b*” value was 0.3.
With `O=S(=O)(O)CCNc1ccc2cc(S(=O)(=O)O)c(N=Nc3ccc(N=Nc4ccc(CCO)cc4)c4ccc(S(=O)(=O)O)cc34)c(O)c2c1` [Compound 11] the “L*a*b*-value: L*” value was 18.3, the “L*a*b*-value: a*” value was 4.2 and the “L*a*b*-value: b*” value was -3.1.
In the case of `O=C(O)CCC(NC(=O)c1ccc(N=Nc2ccc(N=Nc3c(S(=O)(=O)O)cc4ccc(NCCS(=O)(=O)O)cc4c3O)c3cc(S(=O)(=O)O)ccc23)cc1)C(=O)O` (centres unmarked) [Compound 14], the “L*a*b*-value: L*” value is reported as 19.5, the “L*a*b*-value: a*” value is reported as 7.5 and the “L*a*b*-value: b*” value is reported as 2.4.

Same assay, conditions: in words
In the case of `O=S(=O)(O)CCNc1ccc2cc(S(=O)(=O)O)c(N=Nc3ccc(N=Nc4ccc5c(S(=O)(=O)O)cc(S(=O)(=O)O)cc5c4)c4ccc(S(=O)(=O)O)cc34)c(O)c2c1` [Compound 20], the “neutral black (color co-ordinates)” value is reported as “neutral blacks”.
With `O=S(=O)(O)CCNc1ccc2cc(S(=O)(=O)O)c(N=Nc3ccc(N=Nc4cc(Cl)c(S(=O)(=O)O)cc4Cl)c4ccc(S(=O)(=O)O)cc34)c(O)c2c1` [Compound 18] the “neutral black (color co-ordinates)” value was “neutral blacks”.
For `O=C(O)CCc1ccc(N=Nc2ccc(N=Nc3c(S(=O)(=O)O)cc4ccc(NCCS(=O)(=O)O)cc4c3O)c3cc(S(=O)(=O)O)ccc23)cc1` [Compound 12], the “neutral black (color co-ordinates)” value was “neutral blacks”.

Same assay, conditions: state of the art dyes, Table 7
In the case of `Nc1ccc2cc(S(=O)(=O)O)c(N=Nc3ccc(N=Nc4cc(C(=O)O)cc(C(=O)O)c4)c4ccc(S(=O)(=O)O)cc34)c(O)c2c1` [Compound 24, reference compound], the “L*a*b*-value: L*” value is reported as 27.0, the “L*a*b*-value: a*” value is reported as -0.7 and the “L*a*b*-value: b*” value is reported as -8.8.

Assay: Light fastness of printed samples (density loss after xenon lamp irradiation)
Format: physicochemical
Conditions: printed samples, in words
Protocol: as §1, §2, §3
The printed samples were irradiated in an Atlas Ci35A Weather-O-Meter® with a r 6500 W Xenon lamp until a total illumination of 20 kJoule/cm^2 was reached. The density loss was measured with an X-Rite® densitometer. It is expressed as % loss of initial density.
In the case of `O=S(=O)(O)CCNc1ccc2cc(S(=O)(=O)O)c(N=Nc3ccc(N=Nc4ccc5c(S(=O)(=O)O)cc(S(=O)(=O)O)cc5c4)c4ccc(S(=O)(=O)O)cc34)c(O)c2c1` [Compound 20], the light fastness is reported as “excellent light fastness”.
For `O=S(=O)(O)CCNc1ccc2cc(S(=O)(=O)O)c(N=Nc3ccc(N=Nc4cc(Cl)c(S(=O)(=O)O)cc4Cl)c4ccc(S(=O)(=O)O)cc34)c(O)c2c1` [Compound 18], the light fastness was “excellent light fastness”.
For `O=C(O)CCc1ccc(N=Nc2ccc(N=Nc3c(S(=O)(=O)O)cc4ccc(NCCS(=O)(=O)O)cc4c3O)c3cc(S(=O)(=O)O)ccc23)cc1` [Compound 12], the light fastness was “excellent light fastness”.

Same assay, conditions: xenon lamp, total illumination 20 kJoule/cm^2; Table 6
With `O=S(=O)(O)CCNc1ccc2cc(S(=O)(=O)O)c(N=Nc3ccc(N=Nc4ccc5c(S(=O)(=O)O)cc(S(=O)(=O)O)cc5c4)c4ccc(S(=O)(=O)O)cc34)c(O)c2c1` [Compound 20] the “Density loss in %” value was 3%.
With `O=S(=O)(O)CCNc1ccc2cc(S(=O)(=O)O)c(N=Nc3ccc(N=Nc4ccc(CS(=O)(=O)O)cc4)c4cc(S(=O)(=O)O)ccc34)c(O)c2c1` [Compound 9] the “Density loss in %” value was 14%.
With `O=S(=O)(O)CCNc1ccc2cc(S(=O)(=O)O)c(N=Nc3ccc(N=Nc4cc(Cl)c(S(=O)(=O)O)cc4Cl)c4ccc(S(=O)(=O)O)cc34)c(O)c2c1` [Compound 18] the “Density loss in %” value was 5%.
With `O=C(O)CCc1ccc(N=Nc2ccc(N=Nc3c(S(=O)(=O)O)cc4ccc(NCCS(=O)(=O)O)cc4c3O)c3cc(S(=O)(=O)O)ccc23)cc1` [Compound 12] the “Density loss in %” value was 4%.
For `O=P(O)(O)Cc1ccc(N=Nc2ccc(N=Nc3c(S(=O)(=O)O)cc4ccc(NCCS(=O)(=O)O)cc4c3O)c3cc(S(=O)(=O)O)ccc23)cc1` [Compound 10], the “Density loss in %” value was 13%.
In the case of `O=C(O)c1cccc(N=Nc2ccc(N=Nc3c(S(=O)(=O)O)cc4ccc(NCCS(=O)(=O)O)cc4c3O)c3cc(S(=O)(=O)O)ccc23)c1` [Compound 2], the “Density loss in %” value is reported as 0%.
With `O=S(=O)(O)CCNc1ccc2cc(S(=O)(=O)O)c(N=Nc3ccc(N=Nc4ccc(CCO)cc4)c4ccc(S(=O)(=O)O)cc34)c(O)c2c1` [Compound 11] the “Density loss in %” value was 11%.
With `O=C(O)CCC(NC(=O)c1ccc(N=Nc2ccc(N=Nc3c(S(=O)(=O)O)cc4ccc(NCCS(=O)(=O)O)cc4c3O)c3cc(S(=O)(=O)O)ccc23)cc1)C(=O)O` (centres unmarked) [Compound 14] the “Density loss in %” value was 2%.
